PMC9137614, “TXH11106: A Third-Generation MreB Inhibitor with Enhanced Activity against a Broad Range of Gram-Negative Bacterial Pathogens” (Antibiotics, 2022)
Like-named read-outs stand apart in the source and are kept apart here.

Target: T1, MreB (EcMreB) (Escherichia coli, UniProt P0A9X4)
T1 construct: N-terminal 8× His-tagged E. coli MreB (mreB from ATCC 25922), wild-type
Assay: malachite green ATPase assay with purified EcMreB; Eadie–Hofstee kinetics
Assay type: biochemical

T1 sequence (P0A9X4 whole entry): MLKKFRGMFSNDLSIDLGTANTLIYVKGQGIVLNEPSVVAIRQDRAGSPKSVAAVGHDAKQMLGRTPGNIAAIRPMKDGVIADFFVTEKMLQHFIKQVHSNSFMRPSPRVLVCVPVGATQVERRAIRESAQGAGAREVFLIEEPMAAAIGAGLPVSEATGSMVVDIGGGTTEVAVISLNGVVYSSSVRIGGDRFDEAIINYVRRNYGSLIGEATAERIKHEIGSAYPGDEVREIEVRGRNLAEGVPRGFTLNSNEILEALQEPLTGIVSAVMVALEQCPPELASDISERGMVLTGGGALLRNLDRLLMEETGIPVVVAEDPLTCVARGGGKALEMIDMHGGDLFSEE

SMILES | IC50 (read-out: IC50) | IC50
NC1CCCc2c1[nH]c1ccc(Cl)c(Cl)c21 (stereo not drawn) [compound 4, 5,6-dichloro-2,3,4,9-tetrahydro-1H-carbazol-1-amine] | 14 ± 2 µM | –
N=C(N)SCc1ccc(Cl)c(Cl)c1 [A22] | – | 447 ± 87 µM
NC1CCCc2c1[nH]c1ccc(Br)cc21 (stereo not drawn) [CBR-4830] | 49 ± 8 µM | –
